Experimental data from ChEMBL document CHEMBL4184187, “Current knowledge on the nucleotide agonists for the P2Y2 receptor” (Bioorg Med Chem, 2018).

Experiments:
P2Y purinoceptor 2 [1] = target: T1, P2Y purinoceptor 2 (Homo sapiens, UniProt P41231); test: Agonist activity at human P2Y2 receptor expressed in 1321N1 cells assessed as [3H]-inositol phosphate accumulation measured after 90 mins by anion exchange chromatographic method; type: functional, cell-based
P2Y purinoceptor 2 [2] = target: T1, P2Y purinoceptor 2; test: Agonist activity at P2Y2 receptor (unknown origin); type: functional
P2Y purinoceptor 1 = P2Y purinoceptor 1 (Homo sapiens, UniProt P47900); test: Antagonist activity at P2Y1 receptor (unknown origin); type: functional
P2Y purinoceptor 2 [3] = target: T1, P2Y purinoceptor 2; test: Agonist activity at P2Y2 receptor in BEA cells (unknown origin); type: functional, cell-based
P2Y purinoceptor 2 [4] = target: T1, P2Y purinoceptor 2; test: Agonist activity at P2Y2 receptor in human CF/T43 cells; type: functional, cell-based
P2Y purinoceptor 2 [5] = target: T1, P2Y purinoceptor 2; test: Agonist activity at P2Y2 receptor in NG108-15 cells (unknown origin); type: functional, cell-based

T1 sequence (P41231 whole entry): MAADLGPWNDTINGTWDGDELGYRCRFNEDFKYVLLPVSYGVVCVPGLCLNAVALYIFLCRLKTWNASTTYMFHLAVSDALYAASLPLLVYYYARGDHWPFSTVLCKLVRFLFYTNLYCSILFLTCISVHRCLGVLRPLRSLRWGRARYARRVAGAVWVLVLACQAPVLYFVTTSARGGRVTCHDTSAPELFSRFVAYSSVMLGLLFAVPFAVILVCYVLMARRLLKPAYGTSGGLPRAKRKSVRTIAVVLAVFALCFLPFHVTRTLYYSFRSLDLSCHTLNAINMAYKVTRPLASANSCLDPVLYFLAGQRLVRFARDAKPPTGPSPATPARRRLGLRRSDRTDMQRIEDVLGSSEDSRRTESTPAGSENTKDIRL
P2Y purinoceptor 1, sequence (P47900 whole entry): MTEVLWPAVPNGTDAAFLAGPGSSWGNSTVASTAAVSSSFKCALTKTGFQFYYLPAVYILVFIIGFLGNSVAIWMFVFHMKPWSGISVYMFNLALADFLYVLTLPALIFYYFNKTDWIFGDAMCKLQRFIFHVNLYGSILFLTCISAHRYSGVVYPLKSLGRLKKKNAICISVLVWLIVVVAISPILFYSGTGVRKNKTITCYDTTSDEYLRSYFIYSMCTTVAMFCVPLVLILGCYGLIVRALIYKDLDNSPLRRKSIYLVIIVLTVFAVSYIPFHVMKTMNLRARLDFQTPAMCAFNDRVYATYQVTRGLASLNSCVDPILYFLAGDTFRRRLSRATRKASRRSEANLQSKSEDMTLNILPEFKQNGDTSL

EC50 (P2Y purinoceptor 2 [1]) [nM]	SMILES	other results
710	O=c1[nH]c(=S)ccn1[C@@H]1O[C@H](COP(=O)(O)OP(=O)(O)OP(=O)(O)O)[C@@H](O)[C@H]1O	–
–	O=c1[nH]c(=O)n([C@@H]2O[C@H](COP(=O)(O)OP(=O)(O)OP(=O)(O)O)[C@@H](O)[C@H]2O)cc1Br	EC50 (P2Y purinoceptor 2 [2]): 220 nM
10200	O=c1nc(N2CCOCC2)ccn1[C@@H]1O[C@H](COP(=O)(O)OP(=O)(O)OP(=O)(O)O)[C@@H](O)[C@H]1O	–
109	C#CCNC(=O)COc1ccc(CCCO/N=c2\ccn([C@@H]3O[C@H](COP(=O)(O)OP(=O)(O)OP(=O)(O)O)[C@@H](O)[C@H]3O)c(=O)[nH]2)cc1	–
489000	CCCCCCOc1ccn([C@@H]2O[C@H](COP(=O)(O)OP(=O)(O)OP(=O)(O)O)[C@@H](O)[C@H]2O)c(=O)n1	–
3100	CSc1ccn([C@@H]2O[C@H](COP(=O)(O)OP(=O)(O)OP(=O)(O)O)[C@@H](O)[C@H]2O)c(=O)n1	–
15500	COc1ccn([C@@H]2O[C@H](COP(=O)(O)OP(=O)(O)OP(=O)(O)O)[C@@H](O)[C@H]2O)c(=O)n1	–
–	CNc1ncnc2c1ncn2[C@@H]1C[C@H](COP(=O)(O)O)[C@@H](OP(=O)(O)O)C1	IC50 (P2Y purinoceptor 1): 148 nM
26300	CCCCCCNc1ccn([C@@H]2O[C@H](COP(=O)(O)OP(=O)(O)OP(=O)(O)O)[C@@H](O)[C@H]2O)c(=O)n1	–
29800	CN(C)c1ccn([C@@H]2O[C@H](COP(=O)(O)OP(=O)(O)OP(=O)(O)O)[C@@H](O)[C@H]2O)c(=O)n1	–
840	CCCCCCSc1ccn([C@@H]2O[C@H](COP(=O)(O)OP(=O)(O)OP(=O)(O)O)[C@@H](O)[C@H]2O)c(=O)n1	–
–	Nc1ncnc2c1ncn2[C@@H]1O[C@H](COP(=O)(O)OP(=O)(O)OP(=O)(O)O)[C@@H](O)[C@H]1O [ADENOSINE TRIPHOSPHATE]	EC50 (P2Y purinoceptor 2 [3]): 200 nM; EC50 (P2Y purinoceptor 2 [4]): 200 nM; EC50 (P2Y purinoceptor 2 [5]): 180 nM
37800	Nc1ccn([C@@H]2O[C@H](COP(=O)(O)OP(=O)(O)OP(=O)(O)O)[C@@H](O)[C@H]2O)c(=O)n1 [CYSTETINE TRIPHOSPHATE]	–

SMILES	EC50 (P2Y purinoceptor 2 [1]) [nM]	other results
O=c1ccn([C@@H]2O[C@H](COP(=O)(O)OP(=O)(O)OP(=O)(O)O)[C@@H](O)[C@H]2O)c(=O)[nH]1 [URIDINE TRIPHOSPHATE]	120	EC50 (P2Y purinoceptor 2 [3]): 160 nM; EC50 (P2Y purinoceptor 2 [5]): 1250 nM
